Reference: publication PMC9316000, “Preclinical Drug Pharmacokinetic, Tissue Distribution and Excretion Profiles of the Novel Limonin Derivate HY-071085 as an Anti-Inflammatory and Analgesic Candidate in Rats and Beagle Dogs” (Pharmaceuticals, 2022)
Where two headings read alike, the source gives them in different places.

Experiments:
[1] = Pharmacokinetics after single-dose intravenous administration in beagle dogs; format: in vivo; settings: S-IV 1.25 mg/kg
Protocol: After the intravenous administration of 1.25 mg/kg HY-071085, there was also no gender difference for the plasma concentration time data in Figure 9.
In vivo PK profiling in dogs: Beagle dogs (approximately 8–10 kg in weight) were purchased from Jiangsu Yadong Experimental Animal Research Institute Co. Ltd (Nanjing, China). Before the experiment, several beagle dogs were randomly divided into several groups, half males and half females in each group. Four cycles of single-dose administration experiments were carried out, and the cleaning period was 3–5 days. Repeated-dose administration was carried out after the end of four cycles of single-dose administrations and cleaning periods. According to the dosage for the rats, the dosage for the beagle dogs was converted via the body surface area method. The HY-071085 active pharmaceutical ingredients were administered with a dosage volume of 2 mL/kg body weight. The whole-blood samples were centrifuged at 8000 rpm for 5 min, and the plasma samples were separated and stored at –80 °C until the analysis.
(§1) According to the obtained plasma concentration time data, the pharmacokinetic parameters were calculated using Phoenix WinNonlin 8.1 software. The pharmacokinetic parameters—i.e., the area under the curve (AUC), mean residence time (MRT), clearance rate (Cl/F) and steady-state apparent distribution volume (Vss/F)—were calculated by the method of moments, which was estimated according to the following formulae: AUCtn=∑Ci+Ci−1ti−ti−1/2 AUC∞=AUCtn+Cm/λ AUMCtn=∑tiCi+ti−1Ci−1ti−ti−1/2 AUMC∞=AUMCtn+Ctntn/λ+1/λ^2 MRT=AUMC∞/AUC∞ Cl/F=Dose/AUC Vss/F=Cl∗MRT where Ctn is the plasma concentration of tn at the last point after administration, and the elimination rate constant was obtained by ln(concentration) time linear regression.
(§2) Due to the drug having significant individual differences in rats, it could not be uniformly fitted with a PK atrioventricular model; as such, the pharmacokinetic parameters analyzed in this study were calculated using a non-atrioventricular model. The pharmacokinetic parameters are defined as follows: Cmax is the maximum blood concentration after administration and absorption, Tmax is the time required to reach Cmax, t1/2 is the time required to eliminate half of the plasma drug concentration after the drug distribution in the body reaches equilibrium, Cl/F is the apparent clearance rate, AUC0-tn is the area under the blood concentration time curve within the dosing interval, AUC0-∞ is the area under the plasma concentration time curve from 0 to infinity, MRT is the average time that all drug molecules stay in the body, and Vss/F is the steady-state apparent distribution volume, which is the product of the clearance rate and average residence time.

[2] = Plasma protein binding, dog plasma; format: in vitro ADME; settings: read-out: plasma protein binding rate (converted)
Protocol: (§3) The PPB rate in dogs was about 40% at different concentrations in the concentration range (50–400 ng/mL), and in rats it was about 75%. The PPB rate in human plasma varied greatly at different concentrations, ranging from 100% at a low drug concentration to 58% at a high drug concentration, as shown in Table 4.

[3] = Stability in rat plasma under storage conditions; format: in vitro ADME; settings: for stability in plasma, accuracy: n=5
Protocol: The stability of HY-071085 in rat plasma was evaluated by analyzing five repeated QC samples under various storage conditions: long-term freezing (freezing at −80 °C for 30 days), repeated freezing and thawing (thawing with a 37 °C water bath after freezing at −80 °C, repeated three times), normal temperature placement (a 37 °C constant temperature water bath for 8 h), and injector placement (4 °C for 24 h).

[4] = Pharmacokinetics after repeated-dose intragastric administration in rats; format: in vivo, Sprague Dawley rats; settings: for CL/F at 14 days / MRT at 14 days / CL/F at 28 days / MRT at 28 days / Tmax at 14 days / Cmax at 14 days / half-life at 14 days / Vd/F at 14 days / Cmax at 28 days / Tmax at 28 days / half-life at 28 days / Vd/F at 28 days / AUC(0-inf) / AUC: rat, plasma, po, R-IG 6.5 mg/kg; for Vd/F at 14 days / Vd/F at 28 days: read-out: Vss/F; for decrease of plasma exposure level compared with single administration / AUC(0-inf) / AUC: 6.5 mg/kg; for decrease of plasma exposure level compared with single administration: after 28 days of continuous administration; for plasma drug exposure level as % of the single dose: 28th day of intragastric administration; for AUC: read-out: AUC0-tn
Protocol: Male and female rats were given HY-071085 (6.5 mg/kg) by gastric gavage twice a day for 28 days. […] After 28 days of continuous administration, the plasma exposure levels of the male and female rats decreased by 49% and 85%, respectively, compared with that after a single administration (Figure 6).
In vivo PK profiling in the rats: Sprague Dawley rats (approximately 177–221 g in weight) were purchased from Shanghai Xipur-Bikai Experimental Animal Co., Ltd. (Shanghai, China). Before the experiment, several rats were randomly divided into several groups, half males and half females in each group, fasting but free to drink water for 12 h. The dosage of the rats was dependent on the drug pharmacology: the HY-071085 active pharmaceutical ingredients were administered with a dosage volume of 0.25 mL/100 g body weight. The whole-blood samples were centrifuged at 8000 rpm for 5 min, and the plasma samples were separated and stored at –80 °C until the analysis.
as §1, §2

[5] = Plasma protein binding, rat plasma; format: in vitro ADME; settings: read-out: plasma protein binding rate (converted)
Protocol: as §3

[6] = design: method as in earlier work; settings: Temp 25℃; cited from earlier work
[7] = Sprague Dawley, female rats, 14 days
[8] = Sprague Dawley, female rats, 28 days
[9] = Sprague Dawley, male rats, 14 days
[10] = Sprague Dawley, male rats, 28 days
[11] = Sprague-Dawley, female rats, 14 days
[12] = Sprague-Dawley, female rats, 28 days
[13] = Sprague-Dawley, male rats, 14 days
[14] = Sprague-Dawley, male rats, 28 days
[15] = female, Sprague Dawley, female rats, 14 days
[16] = female, Sprague Dawley, female rats, 28 days
[17] = male, Sprague Dawley, male rats, 14 days
[18] = male, Sprague Dawley, male rats, 28 days

CC1(C)OC2CC(=O)OCC23C1C/C(=N\OCCN1CCOCC1)C1(C)C3CC[C@@]2(C)[C@H](c3ccoc3)OC(=O)C3OC312 (stereo partly drawn) [HY-071085, (12S,12aS,E)-12-(furan-3-yl)-6,6,8a,12a-tetramethyl-8-((2-morpholinoethoxy)imino)dodecahydro-1H,3H-oxireno [2,3-d]pyrano [4’,3’:3,3a]isobenzofuro [5,4-f]isochromene-3,10(9aH)-dione]
Cl/F [1]: 51.2 ± 24.2 mL/min/kg | Vss/F [1]: 2.07 ± 1.17 L/kg | AUC(0-inf) ([1]; both sexes, dog, plasma): 594 ± 538 ng·h/mL | Cmax ([1]; both sexes, dog, plasma): 1200 ± 1510 ng/mL | MRT ([1]; both sexes, dog, plasma): 0.62 ± 0.2 h | Tmax ([1]; both sexes, dog, plasma): 5.4 ± 1.8 min | half-life ([1]; both sexes, dog, plasma): 0.7 ± 0.09 h | AUC ([1]; both sexes, dog, plasma, read-out: AUC0-tn): 591 ± 539 ng·h/mL | fraction unbound at 50 ng/mL ([2]; 50 ng/mL, mean): 0.622 | fraction unbound at 100 ng/mL ([2]; 100 ng/mL, mean): 0.671 | fraction unbound at 200 ng/mL ([2]; 200 ng/mL, mean): 0.578 | fraction unbound at 400 ng/mL ([2]; 400 ng/mL, mean): 0.545 | fraction unbound ([2]; dog, dogs, concentration range 50–400 ng/mL): ~0.6 | stability in plasma, accuracy ([3]; injector (24h, 4 °C), 2 ng/mL): 105.00% | stability in plasma, accuracy ([3]; injector (24h, 4 °C), 800 ng/mL): 101.55% | stability in plasma, accuracy ([3]; long-term freezing (−80 °C, 30 days), 2 ng/mL): 112.40% | stability in plasma, accuracy ([3]; long-term freezing (−80 °C, 30 days), 800 ng/mL): 101.50% | stability in rat plasma ([3]; long-term freezing, repeated freezing and thawing, 37 °C 8 h, injector 4 °C 24 h): stable | stability in plasma, accuracy ([3]; normal temperature (8h), 2 ng/mL): 105.90% | stability in plasma, accuracy ([3]; normal temperature (8h), 800 ng/mL): 97.70% | stability in plasma, accuracy ([3]; repeated freeze-thaw (three times), 2 ng/mL): 97.40% | stability in plasma, accuracy ([3]; repeated freeze-thaw (three times), 800 ng/mL): 97.33% | CL/F at 14 days [4, 7]: 630 mL/min/kg | MRT at 14 days [4, 7]: 2.18 ± 0.27 h | CL/F at 28 days [4, 8]: 1730 mL/min/kg | MRT at 28 days [4, 8]: 2.54 ± 1.15 h | CL/F at 14 days [4, 9]: 836 mL/min/kg | Tmax at 14 days [4, 9]: 0.65 ± 0.38 h | CL/F at 28 days [4, 10]: 1860 mL/min/kg | MRT at 28 days [4, 10]: 1.74 ± 0.86 h | Cmax at 14 days [4, 11]: 125 ± 80.3 ng/mL | Tmax at 14 days [4, 11]: 0.68 ± 0.75 h | half-life at 14 days [4, 11]: 1.38 ± 0.24 h | Vd/F at 14 days [4, 11]: 80 ± 51 L/kg | Cmax at 28 days [4, 12]: 37.2 ± 19.9 ng/mL | Tmax at 28 days [4, 12]: 0.33 ± 0.16 h | half-life at 28 days [4, 12]: 1.75 ± 1.14 h | Vd/F at 28 days [4, 12]: 292 ± 251 L/kg | Cmax at 14 days [4, 13]: 63.2 ± 11.2 ng/mL | MRT at 14 days [4, 13]: 2.26 ± 0.33 h | half-life at 14 days [4, 13]: 1.52 ± 0.23 h | Vd/F at 14 days [4, 13]: 108 ± 13.8 L/kg | Cmax at 28 days [4, 14]: 38.9 ± 12.7 ng/mL | Tmax at 28 days [4, 14]: 0.6 ± 0.78 h | half-life at 28 days [4, 14]: 1.11 ± 0.41 h | Vd/F at 28 days [4, 14]: 169 ± 35.2 L/kg | decrease of plasma exposure level compared with single administration ([4]; female rats): 85% | plasma drug exposure level as % of the single dose ([4]; female rats): about 15% | AUC(0-inf) [4, 15]: 233 ± 159 ng·h/mL | AUC [4, 15]: 229 ± 159 ng·h/mL | AUC(0-inf) [4, 16]: 70.2 ± 28.8 ng·h/mL | AUC [4, 16]: 65.8 ± 28.9 ng·h/mL | decrease of plasma exposure level compared with single administration ([4]; male rats): 49% | plasma drug exposure level as % of the single dose ([4]; male rats): about 50% | AUC(0-inf) [4, 17]: 133 ± 22.3 ng·h/mL | AUC [4, 17]: 127 ± 22.4 ng·h/mL | AUC(0-inf) [4, 18]: 59.9 ± 10.5 ng·h/mL | AUC [4, 18]: 55 ± 8.82 ng·h/mL | fraction unbound at 50 ng/mL ([5]; 50 ng/mL, mean): 0.261 | fraction unbound at 100 ng/mL ([5]; 100 ng/mL, mean): 0.247 | fraction unbound at 200 ng/mL ([5]; 200 ng/mL, mean): 0.228 | fraction unbound at 400 ng/mL ([5]; 400 ng/mL, mean): 0.211 | fraction unbound ([5]; rat, rats, concentration range 50–400 ng/mL): ~0.25 | logP [6]: 2.8023
